# How the values were obtained:
# Myzus persicae = experiment: Myzus persicae-test (MYZUPE, spray application); assay type: in vivo; conditions: spray on Chinese cabbage leaf-disks, green peach aphid, all instars; for mortality at 500 g/ha: application rate of 500 g/ha; for mortality at 100 g/ha: application rate of 100 g/ha
# Procedure: Myzus persicae-test (MYZUPE, spray application) [table] [table] To produce a suitable preparation of active compound, 1 part by weight of active compound is mixed with the stated amount of solvent and emulsifier, and the concentrate is diluted with emulsifier-containing water to the desired concentration. Chinese cabbage (Brassica pekinensis) leaf-disks infected with all instars of the green peach aphid (Myzus persicae), are sprayed with a preparation of the active ingredient at the desired concentration. After the specified period of time, mortality in % is determined. 100 % means that all aphids have been killed; 0 % means that none of the […] have been killed.
# Tetranychus urticae = experiment: Tetranychus-test, OP-resistant (TETRUR, spray application); assay type: in vivo; conditions: application rate of 100 g/ha, spray on French bean, two spotted spidermite, all stages
# Procedure: Tetranychus-test, OP-resistant (TETRUR, spray application)
# (§1) To produce a suitable preparation of active compound, 1 part by weight of active compound is mixed with the stated amount of solvent and emulsifier, and the concentrate is diluted with emulsifier-containing water to the desired concentration.
# French bean (Phaseolus vulgaris) which are heavily infested with all stages of the two spotted spidermite (Tetranychus urticae), are sprayed with a preparation of the active ingredient at the desired concentration.
# After the specified period of time, mortality in % is determined. 100 % means that all spider mites have been killed; 0 % means that none of the […] have been killed.
# Meloidogyne incognita = experiment: Meloidogyne-test, OP resistant (MELGIN spray application); assay type: in vivo; conditions: application rate of 20 ppm, sand with egg/larval suspension and lettuce seeds, read-out: activity (nematicidal efficacy in % with reference to gall formation)
# Procedure: Meloidogyne-test, OP resistant (MELGIN spray application)
# as §1
# Containers are filled with sand, active compound solution, Meloidogyne incognita egg/larval suspension and lettuce seeds. The lettuce seeds germinate and the plantlets develop. The galls develop on the roots.
# After the desired time, the nematicidal efficacy is determined in % with reference to gall formation. 100 % means that no galls were found; 0 % means that the number of galls on the treated plants corresponds to that of the untreated control.
# Boophilus microplus = experiment: Boophilus microplus-test (injektion); assay type: in vivo; conditions: application rate of 20 µg/animal; injected in the abdomen
# Procedure: Boophilus microplus-test (injektion)
# as §1
# The solution of the active compound is injected in the abdomen (Boophilus microplus); the animals are transferred into a cup and stayed in a rooming with an air condition.
# After the specified period of time, the efficiany mortality in % is determined. 100 % means that no tick has lay fertile eggs.
# [1] = logP (HCOOH) determination; assay type: physicochemical
Compound,mortality at 500 g/ha (Myzus persicae) [%],efficiency (100 % means that no tick has lay fertile eggs) (Boophilus microplus) [%],other results
C[C@H](NC(=S)NCCO)c1ccc(Cl)cc1 [Compound No. 158],≥ 80,≥ 80,mortality at 100 g/ha (Tetranychus urticae): ≥ 80%; inhibition at 20 ppm (Meloidogyne incognita): ≥ 80%
C[C@H](NC(=S)NCCO)c1ccc(F)cc1 [EXAMPLE 1],–,–,chromatographic logP [1]: 1.52
C[C@H](NC(=S)NCCO)c1ccccc1F [EXAMPLE 2],–,–,chromatographic logP [1]: 1.5
CC(NC(=S)NCCO)c1cccc(F)c1 (centres unmarked) [compound 3],–,≥ 80,mortality at 100 g/ha (Myzus persicae): ≥ 80%
C[C@H](NC(=S)NCCO)c1ccccc1 [compound 5],≥ 80,–,–
C[C@H](NC(=S)NCCO)c1ccccc1F [compound 6],–,≥ 80,mortality at 100 g/ha (Myzus persicae): ≥ 80%; mortality at 100 g/ha (Tetranychus urticae): ≥ 80%
C[C@H](NC(=S)NCCO)c1ccc(F)cc1 [compound 8],≥ 80,–,–
CC[C@H](NC(=S)NCCO)c1ccccc1 [compound 13],≥ 80,–,–

# Reference: patent EP1992228A1, “Insecticidal substituted thiourea derivatives” (Bayer CropScience AG, priority 2007, dated 2008)
